Source: patent US20240108009A1, “1-AMINO-1-CYCLOPROPANECARBOXYLIC ACID AND JASMONIC ACID MIXTURES AND USES THEREOF” (Valent BioSciences LLC, priority 2022, published 2024)

What was measured:
Type in all cases: in vivo
[1] = system: Cripps Pink apples; test: Apple coloration in Cripps Pink variety (Example 10); settings: Cripps Pink (Example 10), 34 hours post spray
Procedure: (§1) To determine if the mixture provided unexpected results, the observed combined efficacy (“OCE”) was divided by the expected combined efficacy (“ECE”) wherein the ECE is calculated by the Abbott method: […]
(§2) wherein ECE is the expected combined efficacy and in which A and B are the fold change from control given by the single active ingredients. If the ratio between the OCE of the mixture and the ECE of the mixture is greater than 1, then greater than expected interactions are present in the mixture. (Gisi, Synergistic Interaction of Fungicides in Mixtures, The American Phytopathological Society, 86:11, 1273-1279, 1996).
10 sets of unripened apples, Cripps Pink variety, harvested three weeks before the normal harvest date, were each foliar sprayed with either 1) 0.05% Regulaid® as a control, 2) 50 ppm jasmonic acid, 3) 300 ppm jasmonic acid, 4) 50 ppm ACC, 5) 300 ppm ACC, 6) a mixture of 50 ppm jasmonic acid and 50 ppm ACC, 7) a mixture of 50 ppm jasmonic acid and 300 ppm ACC, 8) a mixture of 300 ppm jasmonic acid and 50 ppm ACC or 9) a mixture of 300 ppm jasmonic acid and 300 ppm ACC. 34 hours post spray application percent red pixel area (shaded) was measured.

[2] = system: Imperial Gala apples; test: Apple coloration in Imperial Gala variety (Example 3); settings: 34 hours post spray
Procedure: as §1, §2
10 sets of unripened apples, Imperial Gala variety, harvested three weeks before the normal harvest date, were each foliar sprayed with either 1) 0.05% Regulaid® as a control, 2) 50 ppm jasmonic acid, 3) 300 ppm jasmonic acid, 4) 50 ppm ACC, 5) 300 ppm ACC, 6) a mixture of 50 ppm jasmonic acid and 50 ppm ACC or 7) a mixture of 300 ppm jasmonic acid and 300 ppm ACC. 34 hours post spray application percent red pixel area (shaded) was measured.

[3] = system: Pink Lady apples; test: Apple coloration in Pink Lady variety, 100 ppm (Example 13); settings: 34 hours post spray
Procedure: as §1, §2
10 sets of unripened apples, Pink Lady variety, harvested three weeks before the normal harvest date, were each foliar sprayed with either 1) 0.05% Regulaid® as a control, 2) 100 ppm jasmonic acid, 3) 100 ppm ACC and 4) a mixture of 100 ppm jasmonic acid and 100 ppm ACC. 34 hours post spray application percent red pixel area (shaded) was measured. The OCE/ECE ratio formula was modified to ECE=A+B−(A*B) to account for reduced average % red pixel area over control for each of the ACC applications.

[4] = system: Aztec Fuji apples; test: Apple coloration in Aztec Fuji variety (Example 8); settings: 34 hours post spray
Procedure: as §1, §2
10 sets of unripened apples, Aztec Fuji variety, harvested three weeks before the normal harvest date, were each foliar sprayed with either 1) 0.05% Regulaid® as a control, 2) 50 ppm jasmonic acid, 3) 300 ppm jasmonic acid, 4) 50 ppm ACC, 5) 300 ppm ACC, 6) a mixture of 50 ppm jasmonic acid and 50 ppm ACC, 7) a mixture of 50 ppm jasmonic acid and 300 ppm ACC, 8) a mixture of 300 ppm jasmonic acid and 50 ppm ACC or 9) a mixture of 300 ppm jasmonic acid and 300 ppm ACC. 34 hours post spray application percent red pixel area (shaded) was measured.

[5] = system: Ultima Gala apples; test: Apple coloration in Ultima Gala variety (Example 4); settings: 34 hours post spray

| Compound | Average % Red Pixel Area ([1]; 50 ppm) [%] | Fold Change From control ([1]; 50 ppm) | Average % Red Pixel Area ([1]; 300 ppm) [%] | Fold Change From control ([1]; 300 ppm) | Average % Red Pixel Area ([2]; 50 ppm) [%] | Fold Change From control ([2]; 50 ppm) | Average % Red Pixel Area ([2]; 300 ppm) [%] | Fold Change From control ([2]; 300 ppm) | Average % Red Pixel Area [3] [%] | Fold Change From control [3] | Average % Red Pixel Area ([4]; 50 ppm) [%] | Fold Change From control ([4]; 50 ppm) | Average % Red Pixel Area ([4]; 300 ppm) [%] | Fold Change From control ([4]; 300 ppm) | Average % Red Pixel Area ([5]; 50 ppm) [%] | Fold Change From control ([5]; 50 ppm) | Average % Red Pixel Area ([5]; 300 ppm) [%] | Fold Change From control ([5]; 300 ppm) |
| --- | --- | --- | --- | --- | --- | --- | --- | --- | --- | --- | --- | --- | --- | --- | --- | --- | --- | --- |
| NC1(C(=O)O)CC1 [ACC, 1-amino-1-cyclopropanecarboxylic acid] | 54.12 | 6.67 | 57.97 | 7.15 | 7.02 | 0.03 | 4.66 | −0.31 | 19.32 | 0.80 | 35.07 | 0.10 | 29.25 | −0.09 | 10.44 | −0.06 | 14.87 | 0.34 |
| CC/C=C\C[C@H]1C(=O)CC[C@@H]1CC(=O)O [jasmonic acid] | 30.79 | 3.80 | 79.81 | 9.84 | 30.90 | 3.54 | 45.18 | 5.65 | 49.9 | 2.06 | 38.27 | 0.20 | 71.99 | 1.25 | 43.46 | 2.91 | 63.02 | 4.67 |
